Laboratory results from paper PMC12003839 (Communications Biology, 2025).

Target: T1, ECHS1 (short-chain enoyl-CoA hydratase) (Homo sapiens, UniProt P30084)
T1 sequence (P30084 28-290): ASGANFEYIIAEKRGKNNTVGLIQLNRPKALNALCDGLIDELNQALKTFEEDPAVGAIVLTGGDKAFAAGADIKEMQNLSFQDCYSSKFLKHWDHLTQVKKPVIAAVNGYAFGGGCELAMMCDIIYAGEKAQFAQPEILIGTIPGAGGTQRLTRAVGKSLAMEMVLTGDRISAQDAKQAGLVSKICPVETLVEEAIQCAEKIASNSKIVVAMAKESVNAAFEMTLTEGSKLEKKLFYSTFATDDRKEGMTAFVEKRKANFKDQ
Assay: SPR
Assay type: binding

Row | Structure (SMILES) | Kd [µM]
1 | CCCCCCCC(=O)SCCNC(=O)CCNC(=O)[C@H](O)C(C)(C)COP(=O)(O)OP(=O)(O)OC[C@H]1O[C@@H](n2cnc3c(N)ncnc32)[C@H](O)[C@@H]1OP(=O)(O)O [octanoyl-CoA] | 2.64
2 | CCCCCC(=O)SCCNC(=O)CCNC(=O)[C@H](O)C(C)(C)COP(=O)(O)OP(=O)(O)OC[C@H]1O[C@@H](n2cnc3c(N)ncnc32)[C@H](O)[C@@H]1OP(=O)(O)O [hexanoyl-CoA] | 2.57
3 | C/C=C/C(=O)SCCNC(=O)CCNC(=O)[C@H](O)C(C)(C)COP(=O)(O)OP(=O)(O)OC[C@H]1O[C@@H](n2cnc3c(N)ncnc32)[C@H](O)[C@@H]1OP(=O)(O)O [crotonyl-CoA] | 0.863
4 | CC(=O)CC(=O)SCCNC(=O)CCNC(=O)[C@H](O)C(C)(C)COP(=O)(O)OP(=O)(O)OC[C@H]1O[C@@H](n2cnc3c(N)ncnc32)[C@H](O)[C@@H]1OP(=O)(O)O [acetoacetyl-CoA] | 2.69
